Measurements taken from US4223020A, “Synthetic peptides having pituitary growth hormone releasing activity” (Beckman Instruments, Inc., priority 1979, dated 1980).
Non-standard residues stand in square brackets, D forms with d. Residues, ends and D or L forms follow the SMILES beside them.

Tested on: pituitaries removed from 20 day old female rats
Experiment: In vitro growth hormone release study (incubated rat pituitaries, GH radioimmunoassay)
Assay type: cell-based
Settings: mean ± SEM, two pituitaries in 1 ml lactated Ringer's, 36° C.
Procedure: Female rats of the CD-1 strain were housed in a constant temperature room at 24° C. with 14 hours light and 10 hours darkness. The rats were fed Purina brand rat chow ab libitum.
All studies were started between 0800 and 1000 hours.
Pituitaries were removed from 20 day old female rats. Two pituitaries were incubated at 36° C. in 1 ml of lactated Ringer's solution in 10 ml polytetrafluoroethylene beakers in a Dubnoff Shaker (90 cycles/min.). The pituitaries were incubated a total of 4 hours (P1, P2, I3, and I4). After two successive one hour preincubation periods (P1, P2), the peptide was added to the incubation medium hourly for 2 hours (I3, I4).
This in vitro study was performed in triplicate and a standard radioimmunoassay of growth hormone present in the incubation medium was performed in duplicate. The hormonal activity was calculated as the difference (Δ) of growth hormone (GH) levels between I3, I4 and P2, i.e., (I3 -P2) and (I4 -P2). P values were calculated by Students' t test using six growth hormone values for each value recorded.
The growth hormone radioimmunoassay reagents were distributed by the National Institute of Arthritis and […] (NIAMDD) program. The growth hormone values were calculated in terms of nanograms (ng) of a rat standard with a growth hormone potency of 0.61 units/mg.

Molecule	In vitro growth hormone release (Δ GH levels, I3-P2 and I4-P2) (0.3μg peptide)	In vitro growth hormone release (Δ GH levels, I3-P2 and I4-P2) (1μg peptide)	In vitro growth hormone release (Δ GH levels, I3-P2 and I4-P2) (10μg peptide)	In vitro growth hormone release (Δ GH levels, I3-P2 and I4-P2) (0.1μg peptide)	In vitro growth hormone release (Δ GH levels, I3-P2 and I4-P2) (100μg peptide)
NC(=O)[C@H](Cc1ccc(O)cc1)NC(=O)[C@@H](Cc1c[nH]c2ccccc12)NC(=O)[C@@H](Cc1c[nH]c2ccccc12)NC(=O)[C@@H](N)Cc1ccc(O)cc1 [H2 N--Tyr--D-Trp--D-trp--Tyr--CONH2, H2 N-Tyr-D-Trp-D-Trp-Tyr-CONH2] (H-Y[dW][dW]Y-NH2)	345 ± 103 ng GH/ml incubation medium	1111 ± 572 ng GH/ml incubation medium	1898 ± 267 ng GH/ml incubation medium	–	–
H2 N-Tyr-D-Trp-D-Trp-Phe-CONH2 [H2 N--Tyr--D-Trp--D-Trp--Phe--CONH2]	–	686 ± 82 ng GH/ml incubation medium	1790 ± 160 ng GH/ml incubation medium	453 ± 48 ng GH/ml incubation medium	984 ± 355 ng GH/ml incubation medium
